Source: ChEMBL document CHEMBL1201862, “PubChem BioAssay data set” (2004)
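Cultured in 96-well plates, cells were exposed to test compound for 48 hours across five concentrations. GI50 = concentration required for 50% inhibition of growth.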 The source made the active and inactive calls. Rule as the data show it: active = GI50 up to about 1.1 µM and inactive = higher.

Assays:
Test in all cases: inhibition of tumour cell growth, NCI panel, 48 h
Malme-3M = system: Malme-3M
K562 = system: K562
HCT-116 = system: HCT-116
SN12C = system: SN12C
SK-MEL-2 = system: SK-MEL-2
KM-20L2 = system: KM-20L2
A498 = system: A498
EKVX = system: EKVX
NCI-H23 = system: NCI-H23
M14 = system: M14
HCT-15 = system: HCT-15
HOP-92 = system: HOP-92
786-0 = system: 786-0
SW-620 = system: SW-620
SF-268 = system: SF-268
MCF7 = system: MCF7
SR = system: SR
MDA-MB-435 = system: MDA-MB-435
MDA-MB-231 = system: MDA-MB-231
BT-549 = system: BT-549

Measured: GI50

Cc1cc2nc3c(=O)n(C)c(=O)nc-3n(-c3ccc(Cl)cc3)c2cc1C
inactive: Malme-3M 10 µM | K562 12.8 µM | HCT-116 11.9 µM | SN12C 5.85 µM | SK-MEL-2 11.8 µM | KM-20L2 3.62 µM | A498 31.1 µM | EKVX 20.1 µM | NCI-H23 3.81 µM | M14 3.29 µM | HOP-92 13.9 µM | 786-0 16.1 µM | SW-620 4.2 µM | SF-268 11.4 µM
3.68 µM: HCT-15

CC(=O)c1ccccc1NS(=O)(=O)c1ccc2nc(C)n(NS(=O)(=O)c3ccccc3C(C)=O)c(=O)c2c1
inactive: Malme-3M > 100 µM | K562 > 100 µM | MCF7 > 100 µM | HCT-116 > 100 µM | SN12C > 100 µM | SK-MEL-2 > 100 µM | A498 > 100 µM | EKVX > 100 µM | NCI-H23 > 100 µM | M14 > 100 µM | SR > 100 µM | HOP-92 > 100 µM | MDA-MB-435 > 100 µM | MDA-MB-231 > 100 µM | BT-549 > 100 µM | 786-0 > 100 µM | SW-620 > 100 µM | SF-268 > 100 µM
> 100 µM: HCT-15

CC1(C)CCN2C(=O)C34CCCC3CC21S4 (stereo not given)
> 100 µM: HCT-15
inactive: Malme-3M > 100 µM | K562 > 100 µM | MCF7 > 100 µM | HCT-116 > 100 µM | SN12C > 100 µM | SK-MEL-2 > 100 µM | A498 > 100 µM | EKVX > 100 µM | NCI-H23 > 100 µM | M14 > 100 µM | SR > 100 µM | HOP-92 > 100 µM | MDA-MB-435 > 100 µM | MDA-MB-231 > 100 µM | BT-549 > 100 µM | 786-0 > 100 µM | SW-620 > 100 µM | SF-268 > 100 µM

CC1=NN(C(=O)CC(=O)Nc2cccc(C)c2)C(=O)C1/N=N/c1ccc(C(=O)O)cc1 (stereo not given)
inactive: Malme-3M > 100 µM | K562 > 100 µM | MCF7 > 100 µM | HCT-116 > 100 µM | SN12C > 100 µM | SK-MEL-2 > 100 µM | A498 > 100 µM | EKVX > 100 µM | NCI-H23 > 100 µM | M14 > 100 µM | SR 37.9 µM | HOP-92 34.9 µM | MDA-MB-435 > 100 µM | MDA-MB-231 > 100 µM | BT-549 > 100 µM | 786-0 > 100 µM | SW-620 > 100 µM | SF-268 > 100 µM
> 100 µM: HCT-15

CC[C@@]1(O)C(=O)OCc2c1cc1n(c2=O)Cc2c-1nc1ccccc1c2/C=N\NC(=O)C(N)CO (stereo not given in full)
inactive: Malme-3M 9.04 µM | SK-MEL-2 32.4 µM | A498 1.65 µM | EKVX 18.8 µM | HOP-92 1.87 µM | MDA-MB-435 4.25 µM | MDA-MB-231 28.4 µM | BT-549 2.56 µM | SW-620 1.62 µM
4.1 µM: HCT-15
active: K562 1.05 µM | MCF7 0.27 µM | HCT-116 1.02 µM | SN12C 0.182 µM | NCI-H23 0.371 µM | M14 0.492 µM | SR 0.0386 µM | 786-0 0.34 µM | SF-268 0.0643 µM

O=C(/C=C/c1ccc(OCc2ccccc2)c(OCc2ccccc2)c1)OCc1ccccc1
> 100 µM: HCT-15
inactive: Malme-3M > 100 µM | K562 > 100 µM | MCF7 > 100 µM | HCT-116 > 100 µM | SN12C > 100 µM | SK-MEL-2 > 100 µM | A498 > 100 µM | EKVX > 100 µM | NCI-H23 > 100 µM | M14 > 100 µM | SR > 100 µM | HOP-92 > 100 µM | MDA-MB-435 > 100 µM | MDA-MB-231 > 100 µM | BT-549 > 100 µM | 786-0 > 100 µM | SW-620 > 100 µM | SF-268 > 100 µM

CC1(C)OC2C(CO)OC(n3ccc(N)nc3=O)C2O1 (stereo not given)
> 100 µM: HCT-15
inactive: Malme-3M > 100 µM | K562 > 100 µM | MCF7 > 100 µM | HCT-116 > 100 µM | SN12C > 100 µM | SK-MEL-2 > 100 µM | A498 21.5 µM | EKVX > 100 µM | NCI-H23 > 100 µM | M14 > 100 µM | SR > 100 µM | HOP-92 > 100 µM | MDA-MB-435 > 100 µM | MDA-MB-231 > 100 µM | BT-549 > 100 µM | 786-0 > 100 µM | SW-620 > 100 µM | SF-268 > 100 µM

CN(C)CCCCN1c2ccccc2Sc2ccc(C(=O)c3ccccc3)cc21
3.51 µM: HCT-15
inactive: Malme-3M 1.72 µM | K562 1.57 µM | MCF7 1.93 µM | HCT-116 2.18 µM | SN12C 3.11 µM | SK-MEL-2 2.71 µM | A498 13.8 µM | EKVX 6.65 µM | NCI-H23 6.59 µM | M14 1.67 µM | SR 3.83 µM | HOP-92 2.44 µM | MDA-MB-435 1.9 µM | MDA-MB-231 2.11 µM | BT-549 6.01 µM | 786-0 1.82 µM | SW-620 1.77 µM | SF-268 5.6 µM

CCCCCc1c(CCCC)c(O)nc2nc(NC(=O)CCCC)ccc12
> 100 µM: HCT-15
inactive: Malme-3M > 100 µM | K562 > 100 µM | MCF7 > 100 µM | HCT-116 > 100 µM | SN12C > 100 µM | SK-MEL-2 > 100 µM | A498 > 100 µM | EKVX > 100 µM | NCI-H23 > 100 µM | M14 > 100 µM | SR 51.9 µM | HOP-92 > 100 µM | MDA-MB-435 > 100 µM | MDA-MB-231 > 100 µM | BT-549 > 100 µM | 786-0 > 100 µM | SW-620 > 100 µM | SF-268 > 100 µM

CC(/C=C/C=C/C=C/C=C/C=C/C(=O)C1=C(O)C(CCC(=O)O)N(C)C1=O)=C\C(C)C(OC1CC(O)C(O)C(C)O1)C(C)C (stereo not given)
3.68 µM: HCT-15
inactive: Malme-3M 2.23 µM | K562 3.71 µM | MCF7 4.35 µM | HCT-116 2.82 µM | SN12C 3.33 µM | SK-MEL-2 1.78 µM | A498 2.84 µM | EKVX 3.31 µM | NCI-H23 2.62 µM | M14 3.26 µM | SR 3.85 µM | HOP-92 2.72 µM | MDA-MB-435 3 µM | MDA-MB-231 2.9 µM | BT-549 2.11 µM | 786-0 3.15 µM | SW-620 4.13 µM | SF-268 2.84 µM

O=S(=O)(O)c1cc(O)c2c(O)c(/N=N/c3cccc4ccccc34)c(S(=O)(=O)O)cc2c1
> 100 µM: HCT-15
inactive: Malme-3M > 100 µM | K562 > 100 µM | MCF7 > 100 µM | HCT-116 > 100 µM | SN12C > 100 µM | SK-MEL-2 > 100 µM | A498 > 100 µM | EKVX > 100 µM | NCI-H23 > 100 µM | M14 > 100 µM | SR > 100 µM | HOP-92 > 100 µM | MDA-MB-435 > 100 µM | MDA-MB-231 > 100 µM | BT-549 > 100 µM | 786-0 > 100 µM | SW-620 > 100 µM | SF-268 > 100 µM
